Laboratory results published in patent publication US20260091026A1, “METHODS OF TREATING INFLAMMATORY DISEASES” (INTERLINE THERAPEUTICS, INC., priority 2023, published 2026).
pIC50: −log10 of the molar value.

Columns and labels:
RIPK2 (KD)/XIAP (BIR2) = biological target: T1, RIPK2 (KD)/XIAP (BIR2) (Homo sapiens, UniProt O43353); test: RIPK2-XIAP binding competition PPI assay (TR-FRET); details: for Emax: 50 nM of GSK583 = -100% activity, read-out: PPI Amax; for pIC50: GST-RIPK2 / His-XIAP (BIR2)-avi, 120 min at 23° C.
T1 construct: made in house; host or cells: baculovirus-infected Sf9 cells
T1 sequence (O43353 1-310): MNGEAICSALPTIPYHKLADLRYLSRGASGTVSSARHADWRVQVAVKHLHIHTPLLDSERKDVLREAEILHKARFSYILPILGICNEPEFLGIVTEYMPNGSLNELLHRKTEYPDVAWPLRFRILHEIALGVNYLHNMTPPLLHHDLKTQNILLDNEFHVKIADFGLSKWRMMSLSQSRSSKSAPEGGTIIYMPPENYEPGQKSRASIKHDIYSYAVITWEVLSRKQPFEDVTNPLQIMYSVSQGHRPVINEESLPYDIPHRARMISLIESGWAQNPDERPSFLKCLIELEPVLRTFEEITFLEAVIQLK
How it was run: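 TR-FRET competition between GST-RIPK2 (aa 1-310, 1 nM) and His-XIAP BIR2-avi (aa 152-231, 25 nM), both Sf9-expressed, detected with anti-His-XL665 and anti-GST-Tb in Tris pH 7.5 buffer with MgCl2, DTT and vanadate. Incubation was 120 min at 23 °C; the 665/520 nm ratio was normalized to no inhibitor (0%) and 50 nM GSK583 (−100%).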

[1] = test system: THP1-Dual cells, NF-κB pathway (SEAP); test: THP-1 Dual cell SEAP assay (L18-MDP stimulated); assay type: cell-based; details: Homo sapiens, 10 ng/mL L18-MDP, 20-24 h, SEAP readout, read-out: IFNγ THP1 IC50
How it was run: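 About 25,000 THP1-Dual cells per well were preincubated 30 min with serially diluted compound, then stimulated overnight (20-24 h, 37 °C) with 10 ng/mL L18-MDP (final). NF-κB-driven SEAP in supernatant was read with QUANTI-Blue at OD 620-655 nm after 2 h; % inhibition versus DMSO/L18-MDP wells was fitted by non-linear regression to give IC50.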

SMILES	Emax (RIPK2 (KD)/XIAP (BIR2))	pIC50 (RIPK2 (KD)/XIAP (BIR2))	pIC50 [1]
COc1cc2ncc(-c3cc(C(=O)N[C@H](C)c4ncc(F)cn4)n(C)n3)n2cc1S(=O)(=O)C(C)(C)C [Example 104, (R)-3-(6-(tert-butylsulfonyl)-7-methoxyimidazo[1,2-a]pyridin-3-yl)-N-(1-(5-fluoropyrimidin-2-yl)ethyl)-1-methyl-1H-pyrazole-5-carboxamide]	≥ 80%	< 6.00	< 5.60
COCCn1nc(-c2cnc3cc(OC)c(S(=O)(=O)C(C)(C)C)cn23)cc1C(=O)N[C@H](C)c1ccccn1 [Example 105, (R)-3-(6-(tert-butylsulfonyl)-7-methoxyimidazo[1,2-a]pyridin-3-yl)-1-(2-methoxyethyl)-N-(1-(pyridin-2-yl)ethyl)-1H-pyrazole-5-carboxamide]	≥ 80%	7.00 to 8.00	5.60 to 6.30
COc1cc2ncc(-c3cc(C(=O)N[C@H](C)c4ccccn4)n(CC(F)(F)CO)n3)n2cc1S(=O)(=O)C(C)(C)C [Example 106, (R)-3-(6-(tert-butylsulfonyl)-7-methoxyimidazo[1,2-a]pyridin-3-yl)-1-(2,2-difluoro-3-hydroxypropyl)-N-(1-(pyridin-2-yl)ethyl)-1H-pyrazole-5-carboxamide]	≥ 80%	7.00 to 8.00	6.30 to 7.00
COc1cc2ncc(-c3cc(C(=O)N[C@H](C)c4ncccn4)n(CC(F)(F)CO)n3)n2cc1S(=O)(=O)C(C)(C)C [Example 107, (R)-3-(6-(tert-butylsulfonyl)-7-methoxyimidazo[1,2-a]pyridin-3-yl)-1-(2,2-difluoro-3-hydroxypropyl)-N-(1-(pyrimidin-2-yl)ethyl)-1H-pyrazole-5-carboxamide]	≥ 80%	7.00 to 8.00	5.60 to 6.30
C[C@@H](NC(=O)c1cc(-c2cnc3cc(OCCO)c(S(=O)(=O)C(C)(C)C)cn23)nn1C)c1ncccn1 [Example 108, (R)-3-(6-(tert-butylsulfonyl)-7-(2-hydroxyethoxy)imidazo[1,2-a]pyridin-3-yl)-1-methyl-N-(1-(pyrimidin-2-yl)ethyl)-1H-pyrazole-5-carboxamide]	≥ 80%	7.00 to 8.00	6.30 to 7.00
C[C@@H](NC(=O)c1cc(-c2cnc3cc(OCCO)c(S(=O)(=O)C(C)(C)C)cn23)nn1C)c1ccccn1 [Example 109, (R)-3-(6-(tert-butylsulfonyl)-7-(2-hydroxyethoxy)imidazo[1,2-a]pyridin-3-yl)-1-methyl-N-(1-(pyridin-2-yl)ethyl)-1H-pyrazole-5-carboxamide]	≥ 80%	7.00 to 8.00	6.30 to 7.00
C[C@@H](NC(=O)c1cc(-c2cnc3cc(OCCO)c(S(=O)(=O)C(C)(C)C)cn23)nn1C)c1ncccc1F [Example 110, (R)-3-(6-(tert-butylsulfonyl)-7-(2-hydroxyethoxy)imidazo[1,2-a]pyridin-3-yl)-N-(1-(3-fluoropyridin-2-yl)ethyl)-1-methyl-1H-pyrazole-5-carboxamide]	≥ 80%	7.00 to 8.00	> 7.00
C[C@@H](NC(=O)c1cc(-c2cnc3cc(OCCO)c(S(=O)(=O)C(C)(C)C)cn23)nn1C)c1ncccc1Cl [Example 111, (R)-3-(6-(tert-butylsulfonyl)-7-(2-hydroxyethoxy)imidazo[1,2-a]pyridin-3-yl)-N-(1-(3-chloropyridin-2-yl)ethyl)-1-methyl-1H-pyrazole-5-carboxamide]	≥ 80%	7.00 to 8.00	6.30 to 7.00
C[C@H](NC(=O)c1cc(-c2cnc3cc(OCCO)c(S(=O)(=O)C(C)(C)C)cn23)nn1C)c1ncccc1Cl [Example 112, (S)-3-(6-(tert-butylsulfonyl)-7-(2-hydroxyethoxy)imidazo[1,2-a]pyridin-3-yl)-N-(1-(3-chloropyridin-2-yl)ethyl)-1-methyl-1H-pyrazole-5-carboxamide]	55 to 80%	< 6.00	< 5.60
COc1cn2ncc(-c3cc(C(=O)N[C@H](C)c4ccccn4)n(C)n3)c2cc1S(=O)(=O)C(C)(C)C [Example 113, (R)-3-(5-(tert-butylsulfonyl)-6-methoxypyrazolo[1,5-a]pyridin-3-yl)-1-methyl-N-(1-(pyridin-2-yl)ethyl)-1H-pyrazole-5-carboxamide]	≥ 80%	6.00 to 7.00	5.60 to 6.30
COc1cn2ncc(-c3cc(C(=O)N[C@H](C)c4ncccc4F)n(C)n3)c2cc1S(=O)(=O)C(C)(C)C [Example 114, (R)-3-(5-(tert-butylsulfonyl)-6-methoxypyrazolo[1,5-a]pyridin-3-yl)-N-(1-(3-fluoropyridin-2-yl)ethyl)-1-methyl-1H-pyrazole-5-carboxamide]	≥ 80%	7.00 to 8.00	6.30 to 7.00
C[C@@H](NC(=O)c1cc(-c2cnn3cc(OCCO)c(S(=O)(=O)C(C)(C)C)cc23)nn1C)c1ccccn1 [Example 115, (R)-3-(5-(tert-butylsulfonyl)-6-(2-hydroxyethoxy)pyrazolo[1,5-a]pyridin-3-yl)-1-methyl-N-(1-(pyridin-2-yl)ethyl)-1H-pyrazole-5-carboxamide]	≥ 80%	7.00 to 8.00	5.60 to 6.30
C[C@@H](NC(=O)c1cc(-c2cnn3cc(OCCO)c(S(=O)(=O)C(C)(C)C)cc23)nn1C)c1ncccc1F [Example 116, (R)-3-(5-(tert-butylsulfonyl)-6-(2-hydroxyethoxy)pyrazolo[1,5-a]pyridin-3-yl)-N-(1-(3-fluoropyridin-2-yl)ethyl)-1-methyl-1H-pyrazole-5-carboxamide]	≥ 80%	7.00 to 8.00	6.30 to 7.00
CCn1nc(-c2cnn3cc(OCCO)c(S(=O)(=O)C(C)(C)C)cc23)cc1C(=O)N[C@H](C)c1ncccn1 [Example 117, (R)-3-(5-(tert-butylsulfonyl)-6-(2-hydroxyethoxy)pyrazolo[1,5-a]pyridin-3-yl)-1-ethyl-N-(1-(pyrimidin-2-yl)ethyl)-1H-pyrazole-5-carboxamide]	≥ 80%	7.00 to 8.00	> 7.00
CCn1nc(-c2cnc3cc(OCCO)c(S(=O)(=O)C(C)(C)C)cn23)cc1C(=O)N[C@H](C)c1ncccc1F [Example 118, (R)-3-(6-(tert-butylsulfonyl)-7-(2-hydroxyethoxy)imidazo[1,2-a]pyridin-3-yl)-1-ethyl-N-(1-(3-fluoropyridin-2-yl)ethyl)-1H-pyrazole-5-carboxamide]	≥ 80%	> 8.00	> 7.00
CCn1nc(-c2cnc3cc(OCCO)c(S(=O)(=O)C(C)(C)C)cn23)cc1C(=O)N[C@H](C)c1ncccn1 [Example 119, (R)-3-(6-(tert-butylsulfonyl)-7-(2-hydroxyethoxy)imidazo[1,2-a]pyridin-3-yl)-1-ethyl-N-(1-(pyrimidin-2-yl)ethyl)-1H-pyrazole-5-carboxamide]	≥ 80%	> 8.00	> 7.00
CCn1nc(-c2cnc3cc(OCCO)c(S(=O)(=O)C(C)(C)C)cn23)cc1C(=O)N[C@H](C)c1nccs1 [Example 120, (R)-3-(6-(tert-butylsulfonyl)-7-(2-hydroxyethoxy)imidazo[1,2-a]pyridin-3-yl)-1-ethyl-N-(1-(thiazol-2-yl)ethyl)-1H-pyrazole-5-carboxamide]	≥ 80%	> 8.00	> 7.00
CCn1nc(-c2cnc3cc(OCCO)c(S(=O)(=O)C(C)(C)C)cn23)cc1C(=O)N[C@H](C)c1ccccn1 [Example 121, (R)-3-(6-(tert-butylsulfonyl)-7-(2-hydroxyethoxy)imidazo[1,2-a]pyridin-3-yl)-1-ethyl-N-(1-(pyridin-2-yl)ethyl)-1H-pyrazole-5-carboxamide]	≥ 80%	> 8.00	> 7.00
CCn1nc(-c2cnc3cc(OCCO)c(S(=O)(=O)C(C)(C)C)cn23)cc1C(=O)N[C@H](C)c1ccn(C)n1 [Example 122, (R)-3-(6-(tert-butylsulfonyl)-7-(2-hydroxyethoxy)imidazo[1,2-a]pyridin-3-yl)-1-ethyl-N-(1-(1-methyl-1H-pyrazol-3-yl)ethyl)-1H-pyrazole-5-carboxamide]	≥ 80%	7.00 to 8.00	> 7.00
CCn1nc(-c2cnc3cc(OCCO)c(S(=O)(=O)C(C)(C)C)cn23)cc1C(=O)N[C@@H](C)c1ccn(C)n1 [Example 123, (S)-3-(6-(tert-butylsulfonyl)-7-(2-hydroxyethoxy)imidazo[1,2-a]pyridin-3-yl)-1-ethyl-N-(1-(1-methyl-1H-pyrazol-3-yl)ethyl)-1H-pyrazole-5-carboxamide]	≥ 80%	6.00 to 7.00	< 5.60
CCn1nc(-c2cnc3cc(OC)c(S(=O)(=O)C(C)(C)C)cn23)cc1C(=O)N[C@@H](C)c1ccn(C)n1 [Example 124, (S)-3-(6-(tert-butylsulfonyl)-7-methoxyimidazo[1,2-a]pyridin-3-yl)-1-ethyl-N-(1-(1-methyl-1H-pyrazol-3-yl)ethyl)-1H-pyrazole-5-carboxamide]	≥ 80%	6.00 to 7.00	< 5.60
CCn1nc(-c2cnc3cc(OC)c(S(=O)(=O)C(C)(C)C)cn23)cc1C(=O)N[C@H](C)c1ccn(C)n1 [Example 125, (R)-3-(6-(tert-butylsulfonyl)-7-methoxyimidazo[1,2-a]pyridin-3-yl)-1-ethyl-N-(1-(1-methyl-1H-pyrazol-3-yl)ethyl)-1H-pyrazole-5-carboxamide]	≥ 80%	7.00 to 8.00	> 7.00
